Results taken from patent publication US20220356186A1, “PERK INHIBITING PYRROLOPYRIMIDINE COMPOUNDS” (HiberCell, Inc., priority 2019, published 2022).
Read-outs that look alike come from different tables or passages of the source.

Columns and labels:
[1] = tested on: GFP-eIF2α in HEK293 cells; experiment: PERK cellular assay, TR-FRET in HEK293-EGFP-eIF2a cells after tunicamycin-induced ER stress; assay type: cell-based; conditions: HEK293-EGFP-eIF2a cells, tunicamycin 2 hours, read-out: Cellular eIF2α IC50
Description: Stable cell lines were created in HEK293 cells using lentiviral particles harboring an expression vector for GFP-eIF2α. Cells were selected using puromycin and enriched using fluorescence activated cell sorting against GFP. HEK293-EGFP-eIF2a cells were plated at 5000 cells/well in 384-well assay plates and incubated overnight at 37° C., 5% CO2. Inhibitor compounds were added to the wells by Echo acoustic dispensing and incubated for 30 minutes at 37° C., 5% CO2 prior to induction of ER stress by addition of tunicamycin to […] for 2 hours. Cells were lysed and TR-FRET was measured in an EnVision plate reader (PerkinElmer). FRET ratio data was normalized to signal from lysates treated with DMSO vehicle control and plotted as percent inhibition against 10-point; 3-fold dilution series of inhibitors. IC50 values were calculated using 4-parameter logistical fitting in XLFit.

[2] = biological target: T1, EIF2AK3 (PERK) catalytic domain (amino acids 536-1116) (Homo sapiens, UniProt Q9NZJ5); experiment: PERK in vitro activity assay (isolated), TR-FRET kinase assay; assay type: biochemical; conditions: isolated PERK enzyme, 1.5 μM ATP; read-out: Biochemical IC50
T1 construct: EIF2AK3 (PERK) catalytic domain (amino acids 536-1116)
T1 sequence (Q9NZJ5 536-1116): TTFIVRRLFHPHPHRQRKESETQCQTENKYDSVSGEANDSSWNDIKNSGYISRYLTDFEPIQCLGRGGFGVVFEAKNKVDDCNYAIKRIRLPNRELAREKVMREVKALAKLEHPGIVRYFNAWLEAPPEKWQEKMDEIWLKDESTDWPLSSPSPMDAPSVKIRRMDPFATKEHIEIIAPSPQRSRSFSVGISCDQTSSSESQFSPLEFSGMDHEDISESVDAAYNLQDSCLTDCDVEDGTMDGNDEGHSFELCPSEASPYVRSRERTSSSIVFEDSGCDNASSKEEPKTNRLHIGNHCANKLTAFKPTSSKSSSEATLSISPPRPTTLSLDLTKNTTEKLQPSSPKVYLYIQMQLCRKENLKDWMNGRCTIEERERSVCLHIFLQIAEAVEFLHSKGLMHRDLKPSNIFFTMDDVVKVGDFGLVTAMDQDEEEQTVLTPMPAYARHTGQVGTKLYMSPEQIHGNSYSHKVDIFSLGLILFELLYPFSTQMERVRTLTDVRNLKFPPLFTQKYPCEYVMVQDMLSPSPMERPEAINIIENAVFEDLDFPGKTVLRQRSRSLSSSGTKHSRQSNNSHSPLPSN
Source text: PERK In Vitro Activity Assay (Isolated):
In vitro Inhibition of PERK Enzyme Activity (isolated) Recombinant human EIF2AK2 (PKR) catalytic domain (amino acids 252-551), EIF2AK3 (PERK) catalytic domain (amino acids 536-1116), GFP-eIF2a substrate, and Terbium-labelled phospho-eIF2a antibody is obtained (Invitrogen, Carlsbad, Calif.).
Express and purify HIS-SUMO-GCN2 catalytic domain (amino acids 584-1019) from E. coli. Perform TR-FRET kinase assays in the absence or presence of inhibitors in a reaction buffer consisting of 50 mM HEPES, pH 7.5, 10 mM MgCb, 1.0 mM EGTA, and 0.01% Brij-35, and 100-200 nM GFP-eIF2a substrate. […] Add test compound, initiate the reaction by addition of enzyme, and incubate at room temperature for 45 minutes. Stop the reaction by addition of EDTA to a final concentration of 10 mM, add Terbium-labelled phospho-eIF2a antibody at a final concentration of 2 nM, and incubate for 90 minutes. Monitor the resulting fluorescence in an EnVison® Multilabel reader (PerkinElmer, Waltham, Mass.). Determine TR-FRET ratios and the resulting IC50 values using a 4-parameter nonlinear logistic equation as shown: Y=(A+((B−A)/(1+((C/x)[…])))) where, Y=% specific inhibition, A=Bottom of the curve, B=Top of the curve, C=absolute IC50 (concentration causing 50% inhibition), and D=hill slope.

Compound | IC50 ([1]; Homo sapiens, HEK293, 2 h) [nM] | IC50 [2] [nM] | IC50 [1] [nM]
COc1cccc(CC(=O)Nc2ccc(-c3cn(C)c4ncnc(N)c34)c(C)c2)c1 [Example 139, N-(4-(4-amino-7-methyl-7H-pyrrolo[2,3-d]pyrimidin-5-yl)-3-methylphenyl)-2-(3-methoxyphenyl)acetamide] | 251 to 500 | 26 to 50 | –
Cc1cccc(C(O)C(=O)Nc2ccc(-c3cn(C)c4nc(C)nc(N)c34)c(C)c2)c1 (centres unmarked) [Example 42, N-(4-(4-amino-2,7-dimethyl-7H-pyrrolo[2,3-d]pyrimidin-5-yl)-3-methylphenyl)-2-hydroxy-2-(m-tolyl)acetamide] | 51 to 100 | 1 to 25 | –
Cc1cc(NC(=O)Cc2ccccc2)ccc1-c1cn(C)c2ncnc(N)c12 [Example 137, N-(4-(4-amino-7-methyl-7H-pyrrolo[2,3-d]pyrimidin-5-yl)-3-methylphenyl)-2-phenylacetamide] | 26 to 50 | 1 to 25 | –
Cc1nc(N)c2c(-c3ccc(NC(=O)C(O)c4cccc(C(F)(F)F)c4)cc3Cl)cn(C)c2n1 (centres unmarked) [Example 102, N-(4-(4-amino-2,7-dimethyl-7H-pyrrolo[2,3-d]pyrimidin-5-yl)-3-chlorophenyl)-2-hydroxy-2-(3-(trifluoromethyl)phenyl)acetamide] | – | 101 to 250 | 101 to 250
COc1cc(NC(=O)C(O)c2cccc(F)c2)ccc1-c1cn(C)c2nc(C)nc(N)c12 (single isomer, unassigned) [Example 106, N-(4-(4-amino-2,7-dimethyl-7H-pyrrolo[2,3-d]pyrimidin-5-yl)-3-methoxyphenyl)-2-(3-fluorophenyl)-2-hydroxyacetamide] | – | 101 to 250 | 1000 to 2000
Cc1nc(N)c2c(-c3ccc(NC(=O)C(O)c4cc(F)cc(F)c4)cc3F)cn(C)c2n1 (centres unmarked) [Example 83, N-(4-(4-amino-2,7-dimethyl-7H-pyrrolo[2,3-d]pyrimidin-5-yl)-3-fluorophenyl)-2-(3,5-difluorophenyl)-2-hydroxyacetamide] | – | 1 to 25 | 1 to 25
Cc1nc(N)c2c(-c3cc(F)c(NC(=O)C(O)c4cccc(F)c4)cc3C)cn(C)c2n1 (single isomer, unassigned) [Example 122, N-(4-(4-amino-2,7-dimethyl-7H-pyrrolo[2,3-d]pyrimidin-5-yl)-2-fluoro-5-methylphenyl)-2-(3-fluorophenyl)-2-hydroxyacetamide] | – | 101 to 250 | 1000 to 2000
Cc1cc(NC(=O)C(O)c2cccc(F)c2)c(F)cc1-c1cn(C)c2ncnc(N)c12 (centres unmarked) [Example 120, N-(4-(4-amino-7-methyl-7H-pyrrolo[2,3-d]pyrimidin-5-yl)-2-fluoro-5-methylphenyl)-2-(3-fluorophenyl)-2-hydroxyacetamide] | – | 51 to 100 | 251 to 500
Cc1nc(N)c2c(-c3ccc(NC(=O)C(O)c4ccccc4C)cc3C)cn(C)c2n1 (centres unmarked) [Example 40, N-(4-(4-amino-2,7-dimethyl-7H-pyrrolo[2,3-d]pyrimidin-5-yl)-3-methylphenyl)-2-hydroxy-2-(o-tolyl)acetamide] | 101 to 250 | 26 to 50 | –
Cc1nc(N)c2c(-c3ccc(NC(=O)C(O)c4cc(F)cc(F)c4)cc3F)cn(C)c2n1 (centres unmarked) [Example 84, N-(4-(4-amino-2,7-dimethyl-7H-pyrrolo[2,3-d]pyrimidin-5-yl)-3-fluorophenyl)-2-(3,5-difluorophenyl)-2-hydroxyacetamide] | – | 51 to 100 | 101 to 250
Cc1cc(NC(=O)C(O)c2cccc(F)c2)ccc1-c1cn(C)c2ncnc(N)c12 (centres unmarked) [Example 10, N-(4-(4-amino-7-methyl-7H-pyrrolo[2,3-d]pyrimidin-5-yl)-3-methylphenyl)-2-(3-fluorophenyl)-2-hydroxyacetamide] | – | 1 to 25 | 51 to 100
Cc1nc(N)c2c(-c3ccc(NC(=O)C(O)c4cccc(F)c4)c(F)c3F)cn(C)c2n1 (single isomer, unassigned) [Example 110, N-(4-(4-amino-2,7-dimethyl-7H-pyrrolo[2,3-d]pyrimidin-5-yl)-2,3-difluorophenyl)-2-(3-fluorophenyl)-2-hydroxyacetamide] | – | 1 to 25 | 1 to 25
Cc1cc(F)cc(C(O)C(=O)Nc2ccc(-c3cn(C)c4nc(C)nc(N)c34)c(F)c2)c1 (centres unmarked) [Example 86, N-(4-(4-amino-2,7-dimethyl-7H-pyrrolo[2,3-d]pyrimidin-5-yl)-3-fluorophenyl)-2-(3-fluoro-5-methylphenyl)-2-hydroxyacetamide] | – | 1 to 25 | 51 to 100
Cc1nc(N)c2c(-c3ccc(NC(=O)C(O)c4cccc(C(F)(F)F)c4)c(F)c3F)cn(C)c2n1 (centres unmarked) [Example 108, N-(4-(4-amino-2,7-dimethyl-7H-pyrrolo[2,3-d]pyrimidin-5-yl)-2,3-difluorophenyl)-2-hydroxy-2-(3-(trifluoromethyl)phenyl)acetamide] | – | 101 to 250 | 101 to 250
Cc1nc(N)c2c(-c3ccc(NC(=O)C(O)c4cccc(C(F)(F)F)n4)cc3C)cn(C)c2n1 (centres unmarked) [Example 62, N-(4-(4-amino-2,7-dimethyl-7H-pyrrolo[2,3-d]pyrimidin-5-yl)-3-methylphenyl)-2-hydroxy-2-(6-(trifluoromethyl)pyridin-2-yl)acetamide] | – | 51 to 100 | 2000 to 3000
Cc1cc(NC(=O)C(O)c2ccccc2)ccc1-c1cn(C)c2ncnc(N)c12 (centres unmarked) [Example 5, N-(4-(4-amino-7-methyl-7H-pyrrolo[2,3-d]pyrimidin-5-yl)-3-methylphenyl)-2-hydroxy-2-phenylacetamide] | – | 1 to 25 | 26 to 50
Cc1nc(N)c2c(-c3ccc(NC(=O)C(O)c4cccc(Cl)c4)cc3Cl)cn(C)c2n1 (centres unmarked) [Example 100, N-(4-(4-amino-2,7-dimethyl-7H-pyrrolo[2,3-d]pyrimidin-5-yl)-3-chlorophenyl)-2-(3-chlorophenyl)-2-hydroxyacetamide] | – | 26 to 50 | 101 to 250
Cc1cc(NC(=O)CCc2ccccc2)ccc1-c1cn(C)c2ncnc(N)c12 [Example 168, N-(4-(4-amino-7-methyl-7H-pyrrolo[2,3-d]pyrimidin-5-yl)-3-methylphenyl)-3-phenylpropanamide] | 1000 to 2000 | 101 to 250 | –
Cc1cc(NC(=O)C(O)c2cccc(F)c2)ccc1-c1cn(C)c2nc(C(C)C)nc(N)c12 (centres unmarked) [Example 25, N-(4-(4-amino-2-isopropyl-7-methyl-7H-pyrrolo[2,3-d]pyrimidin-5-yl)-3-methylphenyl)-2-(3-fluorophenyl)-2-hydroxyacetamide] | > 5000 | 101 to 250 | –
Cc1nc(N)c2c(-c3ccc(NC(=O)C(O)c4ccccc4F)cc3C)cn(C)c2n1 (centres unmarked) [Example 32, N-(4-(4-amino-2,7-dimethyl-7H-pyrrolo[2,3-d]pyrimidin-5-yl)-3-methylphenyl)-2-(2-fluorophenyl)-2-hydroxyacetamide] | 251 to 500 | 101 to 250 | –
Cc1nc(N)c2c(-c3cnc(NC(=O)C(O)c4cccc(C(F)(F)F)c4)cc3C)cn(C)c2n1 (centres unmarked) [Example 132, N-(5-(4-amino-2,7-dimethyl-7H-pyrrolo[2,3-d]pyrimidin-5-yl)-4-methylpyriidn-2-yl)-2-hydroxy-2-(3-(trifluoromethyl)phenyl)acetamide] | – | 1 to 25 | 51 to 100
Cc1nc(N)c2c(-c3ccc(NC(=O)C(O)c4cccc(C(F)(F)F)c4)nc3C)cn(C)c2n1 (centres unmarked) [Example 129, N-(5-(4-amino-2,7-dimethyl-7H-pyrrolo[2,3-d]pyrimidin-5-yl)-6-methylpyridin-2-yl)-2-hydroxy-2-(3-(trifluoromethyl)phenyl)acetamide] | – | 1 to 25 | 51 to 100
